Laboratory results: patent US20090156609A1, “TREATMENT OF POST-TRAUMATIC STRESS DISORDER WITH TETRAHYDROINDOLONE ARYLPIPERZAINE COMPOUNDS” (priority 2007, published 2009)

What was measured:
C57/BL6 male mice = assay: Contextual fear conditioning in a passive avoidance model; type: in vivo
Procedure: The passive avoidance model is an example of a fear conditioning behavior. To perform this test, animals were trained and tested in a Kinder Scientific avoidance system consisting of a shuttle box with a shock grid floor. On day one, mice were introduced to the system by being allowed to move freely between a darkened side and a lighted side of the shuttle box for 3 minutes after a 1 minute acclimation in the dark. Day two (24 hours later) was similar to the first day except that animals received a 1.0 mA foot shock after crossing to the dark compartment. Vehicle or test compounds are administered subcutaneously 30 minutes prior to this training day. Twenty four hours after the training day, animals were put back in the shuttle box and after a minute acclimation period in the dark, the latency to cross from the lighted to the dark compartment (now with the shock off) was recorded.
Response to the development of contextual fear conditioning in an open field model was evaluated in C57/BL6 male mice using an avoidance shuttle chamber (Kinder Scientific, Poway, Calif.). On Day 1, mice were allowed to run through the shuttle box for 3 minutes in order to acclimate them to it. One side was light and the other was dark. One Day 2, animals were dosed subcutaneously […] prior to training. […] The latency to cross to the dark side was recorded, with a 3 minute maximum testing duration.

mice = assay: Spontaneous Activity model (locomotor activity); type: in vivo
Source text: Ambulatory and non-ambulatory activity can be used to test spontaneous and drug-induced motor activity. The test can be used to profile the potential for a drug to induce hyperactivity or sedation.
In this model, Kinder Scientific photobeam activity monitors are used to record the ambulatory and non-ambulatory motor activity. The monitors track the photobeam breaks made by the animal that are used to calculate the number of ambulatory and fine (non-ambulatory) motor movements. A drug-induced increase in activity can indicate the potential for an adverse event such as hyperactivity. A drug-induced decrease in response can indicate the potential for an adverse event such as sedation. Doses at which no significant change in activity are recorded, and more preferably at which no change in activity are recorded, can be selected for further evaluation.
The present compounds were tested in the conditioned avoidance response (CAR) model and in the Spontaneous Activity model described above.

- effect in the Spontaneous Activity model compared to vehicle treated mice (mice; subcutaneous, doses of up to 10 mg/kg): did not produce any effect
Structure (SMILES): O=C1CCCc2c1ccn2CCN1CCN(c2cccc(Cl)c2)CC1 [Compound A, 1-{2-[4-(3-Chlorophenyl)piperazin-1-yl]ethyl}-1,5,6,7-tetrahydroindol-4-one]
- latency to cross over to the dark side compared to vehicle (FIG. 3) (C57/BL6 male mice; dosed subcutaneously 20 minutes prior to training, tested 24 hours later): showed a reduction in latency to cross over to the dark side
- duration of the improvement in latency (C57/BL6 male mice; testing on Days 3-5 post-shock administration): three consecutive days of testing
- minimum effective dose, Locomotor Activity (mice; models unwanted side effects): >10 mg/kg
